Consider 19 molecules from PubChem BioAssay (NCI).

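How tested: cells in 96-well plates exposed to compound for 48 hours at five concentrations. Definition used: TGI = concentration required for complete inhibition of growth.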 A value given as a limit tells only on which side of the number the result lay.

Some test systems named below: UACC-257 melanoma; LOX IMVI melanoma; CCRF-CEM leukemia; IGROV1 ovarian; DU-145 prostate; SF-295 CNS; ACHN renal; SK-MEL-2 melanoma; OVCAR-5 ovarian; HOP-92 NSCLC.
Experiment in all cases: NCI-60 cell line screen, 48 h

As for `C=C(C)CC1(O)C(=O)C(OCC)=C1OCC` (stereo not given), the TGI with UACC-257 melanoma, in the assay on LOX IMVI melanoma, in the assay on CCRF-CEM leukemia, with IGROV1 ovarian, with DU-145 prostate and in the assay on SF-295 CNS was more than 100 µM throughout. The TGI in the assay with ACHN renal, in the assay on SK-MEL-2 melanoma, with OVCAR-5 ovarian and in the assay on HOP-92 NSCLC was more than 100 µM each time.

`OC[C@]1(n2nc3ccccc3n2)OC[C@@H]1c1ccccc1`: the TGI in the assay with UACC-257 melanoma, in the assay with LOX IMVI melanoma, in the assay on CCRF-CEM leukemia, in the assay on IGROV1 ovarian, in the assay on DU-145 prostate and with SF-295 CNS was more than 100 µM throughout. The TGI in the assay on ACHN renal, with SK-MEL-2 melanoma, in the assay on OVCAR-5 ovarian and in the assay on HOP-92 NSCLC was more than 100 µM in each case.

As to `Cc1nn(C(=O)c2ccncc2)c2c1C(c1ccccc1)SC(N)=N2` (stereo not given), the TGI in the assay on UACC-257 melanoma, with LOX IMVI melanoma, in the assay on CCRF-CEM leukemia, with IGROV1 ovarian, in the assay with DU-145 prostate and in the assay with SF-295 CNS was more than 10 µM in each case. For the same molecule, the TGI in the assay on ACHN renal, in the assay with SK-MEL-2 melanoma, in the assay with OVCAR-5 ovarian and with HOP-92 NSCLC was more than 10 µM in each case.

Regarding `CCOC(=O)Cc1csc2[n+]1C(=O)/C(=C\c1cccc(Cl)c1Cl)S2`, the TGI in the assay with UACC-257 melanoma turned out to be 90.1 µM; in the assay on LOX IMVI melanoma, 42.2 µM; with CCRF-CEM leukemia, 37.8 µM; in the assay on IGROV1 ovarian, 50.6 µM; with DU-145 prostate, 46.3 µM; in the assay with SF-295 CNS, 46.5 µM. Moreover, the TGI in the assay with ACHN renal is 45.5 µM; in the assay on SK-MEL-2 melanoma, 36.7 µM; with OVCAR-5 ovarian, more than 100 µM; with HOP-92 NSCLC, 26.8 µM.

Take `O=C(NNC(c1ccccc1)C(F)(F)F)c1ccncc1` (stereo not given): the TGI in the assay with UACC-257 melanoma, in the assay with LOX IMVI melanoma, in the assay with CCRF-CEM leukemia, in the assay with IGROV1 ovarian, with DU-145 prostate and in the assay with SF-295 CNS was more than 100 µM each time. The TGI in the assay with ACHN renal, with SK-MEL-2 melanoma, with OVCAR-5 ovarian and in the assay with HOP-92 NSCLC was more than 100 µM each time.

As for `O=C(/C=C1\C[C@H]2C=Nc3ccccc3C(=O)N2C1)NCCCCNC(=O)/C=C1\C[C@H]2C=Nc3ccccc3C(=O)N2C1`, the TGI in the assay with UACC-257 melanoma was 27.1 µM; in the assay on LOX IMVI melanoma, 6.35 µM; in the assay with CCRF-CEM leukemia, 4.82 µM; with IGROV1 ovarian it was 27.8 µM; in the assay on DU-145 prostate, 29.7 µM; in the assay with SF-295 CNS, 35.4 µM. Also, the TGI amounted to 12.6 µM in the assay with ACHN renal, 29.2 µM with SK-MEL-2 melanoma, 34.4 µM in the assay on OVCAR-5 ovarian and 20.4 µM with HOP-92 NSCLC.

Turning to `O=C(C[n+]1ccccc1)N/N=C(\Cc1nc2ccc([N+](=O)[O-])cc2[nH]c1=O)C(=O)Nc1cc(Cl)c(Cl)cc1Cl`, the TGI in the assay on UACC-257 melanoma, with LOX IMVI melanoma, with CCRF-CEM leukemia, in the assay on IGROV1 ovarian, in the assay on DU-145 prostate and in the assay with SF-295 CNS was more than 100 µM throughout. For the same molecule, the TGI in the assay with ACHN renal, in the assay on SK-MEL-2 melanoma, with OVCAR-5 ovarian and with HOP-92 NSCLC was more than 100 µM in each case.

As to `COc1ccc2c(c1)/C(=C\c1c(C)nc3sc(C)cn13)C(=O)N2`, the TGI in the assay on UACC-257 melanoma was more than 78.2 µM; with LOX IMVI melanoma, 61.2 µM; with CCRF-CEM leukemia it was 2.32 µM; with IGROV1 ovarian, 20.5 µM; in the assay with DU-145 prostate, more than 46.1 µM; in the assay on SF-295 CNS, more than 20.4 µM. Besides, the TGI is more than 100 µM with ACHN renal, more than 28.3 µM with SK-MEL-2 melanoma, 74.4 µM in the assay on OVCAR-5 ovarian and more than 28.5 µM in the assay on HOP-92 NSCLC.

Regarding `CC(C)(C)c1cc2c(O)c(c1)Cc1cc(C(C#N)(Cc3ccc4ccccc4c3)Cc3ccc4ccccc4c3)cc(c1O)Cc1cc(C(C)(C)C)cc(c1O)Cc1cc(C(C#N)(Cc3ccc4ccccc4c3)Cc3ccc4ccccc4c3)cc(c1O)C2`, the TGI with UACC-257 melanoma, in the assay with LOX IMVI melanoma, in the assay on CCRF-CEM leukemia, in the assay on IGROV1 ovarian, in the assay with DU-145 prostate and in the assay with SF-295 CNS was more than 100 µM each time. The TGI in the assay with ACHN renal, in the assay on SK-MEL-2 melanoma, in the assay on OVCAR-5 ovarian and with HOP-92 NSCLC was more than 100 µM each time.

With `CCOC(=O)c1c(C)cc(=O)n2c1[nH]c1ccccc12`, the TGI with UACC-257 melanoma, with LOX IMVI melanoma, in the assay on CCRF-CEM leukemia, with IGROV1 ovarian, in the assay on DU-145 prostate and with SF-295 CNS was more than 100 µM each time. The TGI with ACHN renal, with SK-MEL-2 melanoma, in the assay with OVCAR-5 ovarian and in the assay with HOP-92 NSCLC was more than 100 µM in each case.

In the case of `Oc1ccccc1C=Nc1ccc(-c2nc3ccccc3[nH]2)cc1`, the TGI in the assay with UACC-257 melanoma is more than 100 µM; in the assay with LOX IMVI melanoma, more than 100 µM; in the assay on CCRF-CEM leukemia it was 71.5 µM; in the assay with IGROV1 ovarian, more than 100 µM; in the assay on DU-145 prostate, more than 100 µM; with SF-295 CNS it was more than 100 µM. In addition, the TGI in the assay with ACHN renal, with SK-MEL-2 melanoma, with OVCAR-5 ovarian and with HOP-92 NSCLC was more than 100 µM each time.

In the case of `CCOP(=O)(C/C=C/Cn1nc(Br)c(=O)[nH]c1=O)OCC`, the TGI in the assay on UACC-257 melanoma, in the assay on LOX IMVI melanoma, in the assay with CCRF-CEM leukemia, in the assay with IGROV1 ovarian, with DU-145 prostate and in the assay with SF-295 CNS was more than 100 µM in each case. Besides, the TGI in the assay with ACHN renal, in the assay on SK-MEL-2 melanoma, with OVCAR-5 ovarian and in the assay on HOP-92 NSCLC was more than 100 µM each time.

With `CC1=CCC2C3(C)CCC2(C(C)C)C1C3` (stereo not given) (tested in a mixture with another compound), the TGI stood at 99.7 µM with UACC-257 melanoma; 87.8 µM in the assay on LOX IMVI melanoma; 56.9 µM in the assay with CCRF-CEM leukemia; 35.1 µM in the assay with IGROV1 ovarian; 68 µM in the assay on DU-145 prostate; 40.3 µM in the assay with SF-295 CNS. The TGI was determined as 36.9 µM in the assay with ACHN renal, 32.2 µM in the assay on SK-MEL-2 melanoma, 37.6 µM in the assay on OVCAR-5 ovarian and 58.3 µM in the assay with HOP-92 NSCLC.

As for `CC(=O)NNc1nc(C)c(C(/C=C/c2ccc([N+](=O)[O-])cc2)=N/NC(N)=S)s1`, the TGI with UACC-257 melanoma, in the assay with LOX IMVI melanoma, in the assay with CCRF-CEM leukemia, in the assay on IGROV1 ovarian, in the assay with DU-145 prostate and in the assay on SF-295 CNS was more than 100 µM in each case. Further, the TGI in the assay on ACHN renal, in the assay with SK-MEL-2 melanoma, with OVCAR-5 ovarian and in the assay on HOP-92 NSCLC was more than 100 µM throughout.

Consider `Cc1ccc2c(c1)C(=O)N1CCC[C@H]1C=N2`, for which the TGI in the assay on UACC-257 melanoma was more than 74.3 µM; in the assay with LOX IMVI melanoma, more than 100 µM; in the assay with CCRF-CEM leukemia, 22.6 µM; in the assay with IGROV1 ovarian, more than 66.3 µM; in the assay with DU-145 prostate, more than 100 µM; in the assay with SF-295 CNS it was more than 100 µM. For the same molecule, the TGI in the assay with ACHN renal was more than 70.9 µM; with SK-MEL-2 melanoma, 34.9 µM; in the assay with OVCAR-5 ovarian it was more than 93.1 µM; in the assay with HOP-92 NSCLC, more than 86.9 µM.

Regarding `CC(C)OP(=O)(OC(C)C)/C(C#N)=C/c1ccco1`, the TGI in the assay on UACC-257 melanoma, with LOX IMVI melanoma, with CCRF-CEM leukemia, in the assay on IGROV1 ovarian, in the assay on DU-145 prostate and with SF-295 CNS was more than 100 µM throughout. In addition, the TGI with ACHN renal, in the assay on SK-MEL-2 melanoma, in the assay on OVCAR-5 ovarian and with HOP-92 NSCLC was more than 100 µM each time.

Regarding `O=C(O)CNc1ccc(C(=O)O)cc1`, the TGI with UACC-257 melanoma, with LOX IMVI melanoma, in the assay with CCRF-CEM leukemia, in the assay with IGROV1 ovarian, in the assay with DU-145 prostate and in the assay on SF-295 CNS was more than 100 µM throughout. In addition, the TGI with ACHN renal, with SK-MEL-2 melanoma, with OVCAR-5 ovarian and with HOP-92 NSCLC was more than 100 µM each time.

Turning to `CCOC(=O)C(C(=O)c1ccccc1C(=O)OC)=P(c1ccccc1)(c1ccccc1)c1ccccc1`, the TGI with UACC-257 melanoma, in the assay on LOX IMVI melanoma, in the assay with CCRF-CEM leukemia, in the assay with IGROV1 ovarian, in the assay on DU-145 prostate and with SF-295 CNS was more than 10 µM each time. In addition, the TGI in the assay with ACHN renal, with SK-MEL-2 melanoma, with OVCAR-5 ovarian and in the assay on HOP-92 NSCLC was more than 10 µM each time.

Regarding `Cc1cc(-c2nc3ccccc3s2)ccc1N`, the TGI is more than 100 µM with UACC-257 melanoma; more than 78.5 µM in the assay with LOX IMVI melanoma; more than 100 µM in the assay on CCRF-CEM leukemia; more than 100 µM with IGROV1 ovarian; more than 100 µM in the assay on DU-145 prostate; more than 85.3 µM in the assay on SF-295 CNS. Besides, the TGI in the assay on ACHN renal was more than 95.1 µM; in the assay on SK-MEL-2 melanoma, more than 84 µM; in the assay on OVCAR-5 ovarian it was 70.6 µM; in the assay on HOP-92 NSCLC, more than 100 µM.
